Data as given in patent US10000510B2, “Salt forms of ceftolozane” (Merck Sharp & Dohme Corp., priority 2014, dated 2018).
Counter-ions that a name gives are not always drawn.

Experiments:
Assay type in all cases: physicochemical
[1] = Stability of ceftolozane salts at 40° C. and 75% RH for one week, loss of purity by HPLC; settings: 40° C. and 75% relative humidity, one week (7 days), initial purity minus purity after storage
Experimental: (§1) The ceftolozane salt forms provided herein can also be evaluated for stability upon exposure to high temperatures and humidity. The stability evaluation of the ceftolozane salts can be carried out by HPLC analysis using, for example, the method described in Example 1. For examples, the ceftolozane salt forms can be subjected to 40° C. and 75% relative humidity (RH) for one week (7 days) or, 25° C. and 60% relative humidity (RH) for two weeks or for four weeks. The purity and loss of purity (LOP) of these samples can be evaluated by measuring the amount of ceftolozane by HPLC (e.g., Example 1). The results of the stability analysis are summarized in the following Table B: Unless otherwise indicated herein, the HPLC method of Example 1 was used to measure ceftolozane purity disclosed herein. The loss of purity (LOP) was calculated as the difference between the initial ceftolozane purity and the ceftolozane purity after being subject to the conditions of the stability test (e.g., at 40° C. and 75% relative humidity (RH) for one week), wherein the purity was measured using the HPLC method described below. Standards and samples are prepared in 50 mM sodium perchlorate monohydrate, pH 4.00. A quantitation standard (Standard Solution 1) and check standard (Standard Solution 2) are both prepared at the target working concentration of 0.3 mg/mL taking into consideration the potency, as-is of the standard. The samples are prepared at the target active concentration of 0.3 mg/mL by preparing a sample at 0.04% (w/v). [table]

[2] = Stability of ceftolozane salts at 25° C. and 60% RH for two or four weeks, loss of purity by HPLC; settings: 25° C. and 60% relative humidity; for 4 w, Loss of Purity: four weeks; for 2 w, Loss of Purity: two weeks (14 days)
Experimental: as §1

[3] = Dry stability of lyophilized ceftolozane zwitterion/stabilizing agent compositions at 40° C./75% RH, purity by HPLC; settings: lyophilized solid
Experimental: The following HPLC method was used to measure ceftolozane purity disclosed in Examples 13 through 15.
HPLC conditions for Ceftolozane Purity:
Mobile Phase A: 50 mM Sodium Perchlorate, pH 2.5
Mobile Phase B: 20% ACN in 63 mM Sodium Perchlorate, pH 2.5
Column: Phenomenex Develosil ODS-UG-5, 5 μm, 250 mm×4.6 mm
Sample Solution: 1 mg/mL in water
Active ceftolozane zwitterion (“Cef”; 1620 mg; 2.1 mmol) and sodium chloride (122 mg; 2.1 mmol) were dissolved in 8.25 mL of sterile water to obtain pale yellowish solution. Aliquoted the complex solution to 5-mL freeze drying vials (0.45 mL per vial, 18 vials in total) which were positioned in a lyophilization tray. The key lyophilization conditions included freezing at −50° C. to −55° C. for 2 hours, primary drying at −30° C., 50 millitorrs for 40 hours, secondary drying at 20° C., 50 millitorrs for 7 hours, and storing at 5° C., 600 millitorrs until harvesting. The sublimate was condensed at −60° C. The freeze drying vials were harvested, inserted with proper stoppers, sealed with crimp seals, and labeled as Cef:NaCl(1:1) for dry stability evaluation at 40° C./75% RH. The vials were stored at 40° C. and 75% relative humidity (RH).
The following compositions were prepared analogously: ceftolozane zwitterion and sodium chloride (1:0.5) complex, ceftolozane zwitterion and sodium chloride (1:2) complex, ceftolozane zwitterion and sodium sulfate (1:1) complex, ceftolozane zwitterion and sodium sulfate (1:0.5) complex, ceftolozane zwitterion and sodium sulfate (1:2) complex, ceftolozane zwitterion and calcium chloride (1:1) complex, ceftolozane zwitterion and calcium chloride (1:0.5) complex, ceftolozane zwitterion and calcium chloride (1:2) complex, ceftolozane zwitterion and magnesium chloride (1:1) complex, ceftolozane zwitterion and magnesium chloride (1:0.5) complex, ceftolozane zwitterion and magnesium chloride (1:2) complex.
These compositions and ceftolozane zwitterion alone were evaluated for stability at 40° C./75% RH by HPLC. The dry samples were dissolved in water for loading onto the column.

[4] = listed as phosphate salt of ceftolozane

Molecule | 1 w, Loss of Purity [1] [%] | 4 w, Loss of Purity [2] [%] | 2 w, Loss of Purity [2] [%] | also measured
Cn1c(N)c(NC(=O)NCCN)c[n+]1CC1=C(C(=O)O)N2C(=O)[C@@H](NC(=O)/C(=N\OC(C)(C)C(=O)O)c3nsc(N)n3)[C@H]2SC1 [Ceftolozane chloride, ceftolozane chloride] | 7.5 | 2.9 | 1.0 | 1 w, Loss of Purity ([1]; listed as chloride salt of ceftolozane): 7.5%
Cn1c(N)c(NC(=O)NCCN)c[n+]1CC1=C(C(=O)O)N2C(=O)[C@@H](NC(=O)/C(=N\OC(C)(C)C(=O)O)c3nsc(N)n3)[C@H]2SC1 [Ceftolozane sulfate, 5-amino-4-{[(2-aminoethyl)carbamoyl]amino}-2-{[(6R,7R)-7-({(2Z)-2-(5-amino-1,2,4-thiadiazol-3-yl)-2-[(1-carboxy-1-methylethoxy)imino]acetyl}amino)-2-carboxy-8-oxo-5-thia-1-azabicyclo[4.2.0]oct-2-en-3-yl]methyl}-1-methyl-1H-pyrazolium monosulfate, reference compound] | 22.4 | 5.1 | 1.2 | 
Cn1c(N)c(NC(=O)NCCN)c[n+]1CC1=C(C(=O)[O-])N2C(=O)[C@@H](NC(=O)/C(=N\OC(C)(C)C(=O)O)c3nsc(N)n3)[C@H]2SC1 [Ceftolozane zwitterion, (6R,7R)-3-[(5-amino-4-{[(2-aminoethyl)carbamoyl]amino}-1-methyl-1H-pyrazol-2-ium-2-yl)methyl]-7-({(2Z)-2-(5-amino-1,2,4-thiadiazol-3-yl)-2-[(1-carboxy-1-methylethoxy)imino]acetyl}amino)-8-oxo-5-thia-1-azabicyclo[4.2.0]oct-2-ene-2-carboxylate] | 14.4 | 7.4 | 3.6 | % purity of Ceftolozane, 3 day ([3]; 3 day at 40° C./75% RH): 88.0%; % purity of Ceftolozane, 7 day ([3]; 7 day at 40° C./75% RH): 84.5%; % purity of Ceftolozane, 14 day ([3]; 14 day at 40° C./75% RH): 77.9%; % purity of Ceftolozane, T0 ([3]; T0 (start of storage at 40° C./75% RH)): 92.6%
ceftolozane bromide | 13.3 | 2.3 | 0.4 | 2 w, Loss of Purity ([2]; listed as bromide salt of ceftolozane): 0.4%
ceftolozane edisylate | 9.6 | 1.7 | 1.5 | 4 w, Loss of Purity ([2]; listed as edisylate salt of ceftolozane): 1.7%
ceftolozane ketoglutarate | 22.6 | 5.8 | 3.5 | 
ceftolozane maleate | 9.3 | 5.2 | 3.6 | 
ceftolozane mesylate | 8.3 | 4.3 | 1.3 | 
ceftolozane phosphate | 30.9 | 13.7 | 4.5 | 1 w, Loss of Purity [1, 4]: 30.9%; 4 w, Loss of Purity [2, 4]: 13.7%; 2 w, Loss of Purity [2, 4]: 4.5%
